Tests used:
P2Y6 = P2Y6 (Homo sapiens, UniProt Q15077); experiment: cAMP-inhibition assay in P2RY6-transfected HEK293 cells; format: cell-based; parameters: expressed in transfected cells; host or cells: HEK293; settings: P2RY6-transfected HEK293, 2.5 µM forskolin, Fig. 3c; read-out: EC50, suppression of cAMP formation
Experimental: After transfection (72 h), cells were washed once with DMEM/F12 containing 1 mM 3-isobutyl-methyl-xanthine (IBMX) followed by incubation in the presence of the indicated compounds and forskolin (2.5 µM) for 15 min at 37 °C. The final concentration of DMSO was 1%. Cells were lysed in 25 μl lysis buffer (5 mM HEPES; 0.1% BSA; 0.3% Tween20; 1 mM IBMX; pH 7.4) and kept frozen at −20 °C until measurement. To measure cAMP concentration, the AlphaScreen cAMP assay kit (PerkinElmer Life Sciences) was used according to the manufacturer’s protocol.

78 orphan GPCRs = experiment: PathHunter β-Arrestin Orphan GPCR cell line panel, whole panel; format: cell-based; settings: β-arrestin recruitment
Source text: For screening orphan GPCRs as possible targets for PGE2-G, the PathHunter® β-Arrestin assay (DiscoveRx Co., USA) was used. It monitors the activation of a GPCR by utilizing an enzyme fragment complementation assay with β-galactosidase as the functional reporter. Briefly, the enzyme is split into two complementary portions expressed as fusion proteins in the cell. The enzyme acceptor is fused to β2-arrestin, and the ProLink donor peptide is fused to the GPCR of interest. Upon GPCR stimulation, β2-arrestin is recruited to the receptor, bringing the two fragments of β-galactosidase together. This generates an active enzyme that can convert a chemiluminescent substrate, generating a signal detectable on a standard microplate reader (see manufacturer’s instructions). In total, 78 GPCRs, previously considered orphan and individually transfected into cells, were screened by DiscoveRx (Supplementary Table S1). The percentage activity given in the results is calculated using the following formula: % activity = 100% × (mean RLU of test sample - mean RLU of vehicle control)/mean RLU of vehicle control).

RAW264.7 cells = settings: RAW264.7 and H1819 cell lines; read-out: EC50, Ca2+ response; cited from earlier work

Chain of P2Y6 (Q15077 whole entry): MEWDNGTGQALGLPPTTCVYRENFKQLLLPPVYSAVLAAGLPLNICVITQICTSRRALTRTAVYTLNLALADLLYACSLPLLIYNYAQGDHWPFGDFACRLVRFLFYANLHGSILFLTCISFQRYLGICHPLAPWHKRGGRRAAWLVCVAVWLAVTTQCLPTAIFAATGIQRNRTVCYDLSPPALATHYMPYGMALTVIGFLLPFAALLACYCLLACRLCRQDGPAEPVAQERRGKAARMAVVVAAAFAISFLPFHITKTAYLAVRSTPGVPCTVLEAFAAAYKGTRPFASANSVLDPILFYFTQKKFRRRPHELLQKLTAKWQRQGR

| Molecule | EC50 (P2Y6) | response of orphan GPCRs (78 orphan GPCRs) | EC50 (RAW264.7 cells) |
| --- | --- | --- | --- |
| O=c1ccn([C@@H]2O[C@H](COP(=O)(O)OP(=O)(O)O)[C@@H](O)[C@H]2O)c(=O)[nH]1 [UDP] | 3.6 ± 0.3 nM | – | – |
| Prostaglandin E2 glyceryl ester [PGE2-G] | – | None of the tested receptors demonstrated a positive response | ~0.001 nM |

— article PMC5443783, “Prostaglandin E2 glyceryl ester is an endogenous agonist of the nucleotide receptor P2Y6” (Scientific Reports, 2017)
